Experimental data taken from patent US7365086B2, “Pramipexole acid addition salts” (Synthon IP Inc., priority 2003, dated 2008).
Structures can show the parent of a compound that is named as a salt.

Experiments:
[1] = Approximate water solubility of pramipexole acid addition salts (saturation in water, shaken overnight, evaporation and weighing); settings: thermodynamic from solid
Experimental: In general the acid addition salt was added to 2 ml of water in a test tube (1 ml of water was used for some of the very soluble salts) until a residue remained. The tube was shaken overnight at room temperature. The next morning 1 ml of the clear solution from above the solid residue was removed from the tube. This sample was evaporated and the residue was dried and weighed. In this way the approximate solubility of the salt in the water was determined.

[2] = DVS, 25° C.
Experimental: The hygroscopicity was measured using a Dynamic Vapor Sorption apparatus or DVS (Surface Measurement Systems Ltd, UK) at 25° C. and at various controlled relative humidity conditions from 0 to 90%.
First the relative humidity was changed from 0% to 60% and back to 0% (cycle 1). Subsequently, the relative humidity was raised by steps of 10% until 90% and reduced with steps of 10% until 0% (cycle 2). Finally, the relative humidity was changed to 60% and back to 0% (cycle 3). At each step the sample was conditioned till constant weight.

CCCN[C@H]1CCc2nc(N)sc2C1 [Pramipexole dihydrochloride monohydrate, pramipexole dihydrochloride monohydrate]
solubility [1]: > 300 mg/mL
water uptake relative to dry mass at 60% relative humidity ([2]; 60% relative humidity): over 1.2%
total water uptake relative to the dry mass in the step from 70% and 80% relative humidity ([2]; 70% to 80% relative humidity): 5%
